# Source: patent USRE39591E1, “6-O-substituted ketolides having antibacterial activity” (Abbott Laboratories, priority 1996, dated 2007)
# System: up to 32 different microorganisms
# Test: in vitro antibacterial activity (MIC), agar dilution on Brain Heart Infusion (BHI) agar with Steers replicator
# Type: cell-based
# Conditions: unit assumed
# Method: Representative compounds of the present invention were assayed in vitro for antibacterial activity as follows: Twelve petri dishes containing successive aqueous dilutions of the test compound mixed with 10 mL of sterilized Brain Heart Infusion (BHI) agar (Difco 0148-01-5) were prepared. Each plate was inoculated with 1:100 (or 1:10 for slow-growing strains, such as Micrococcus and Streptococcus) dilutions of up to 32 different microorganisms, using a Steers replicator block. The inoculated plates were incubated at 35°-37° C. for 20 to 24 hours. In addition, a control plate, using BHI agar containing no test compound, was prepared and incubated at the beginning and end of each test.
# An additional plate containing a compound having known susceptibility patterns for the organisms being tested and belonging to the same antibiotic class as the test compound was also prepared and incubated as a further control, as well as to provide test-to-test comparability. Erythromycin A was used for this purpose.
# After incubation, each plate was visually inspected. The minimum inhibitory concentration (MIC) was defined as the lowest concentration of drug yielding no growth, a slight haze, or sparsely isolated colonies on the inoculum spot as compared to the growth control.
# [1] = Candida albicans CCH 442 (code TT)
# [2] = Enterococcus faecism ATCC 8043 (code II)
# [3] = Escherichia coli DC-2 (code SS)
# [4] = Escherichia coli JUHL (code QQ)
# [5] = Micrococcus luteus ATCC 4698 (code PP)
# [6] = Micrococcus luteus ATCC 9341 (code OO)
# [7] = Mycobacterium smegmatis ATCC 114 (code UU)
# [8] = Nocardia Asteroides ATCC9970 (code VV)
# [9] = Staphylococcus aureus 1775 (code GG)
# [10] = Staphylococcus aureus A5177 (code BB)
# [11] = Staphylococcus aureus A-5278 (code CC)
# [12] = Staphylococcus aureus ATCC 6538P (code AA)
# [13] = Staphylococcus aureus CMX 553 (code FF)
# [14] = Staphylococcus aureus CMX 642A (code DD)
# [15] = Staphylococcus aureus NCTC10649M (code EE)
# [16] = Staphylococcus epidermidis 3519 (code HH)
# [17] = Streptococcus agalactiae CMX 508 (code KK)
# [18] = Streptococcus bovis A-5169 (code JJ)
# [19] = Streptococcus pyogenes 930 (code MM)
# [20] = Streptococcus pyogenes EES61 (code LL)
# [21] = Streptococcus pyogenes PIU 2548 (code NN)
SMILES,MIC [1] [µg/mL],MIC [2] [µg/mL],MIC [3] [µg/mL],MIC [4] [µg/mL],MIC (Escherichia coli SS (code RR)) [µg/mL],MIC [5] [µg/mL],MIC [6] [µg/mL],MIC [7] [µg/mL],MIC [8] [µg/mL],MIC [9] [µg/mL],MIC [11] [µg/mL],MIC [12] [µg/mL],MIC [13] [µg/mL],MIC [14] [µg/mL],MIC [15] [µg/mL],MIC [16] [µg/mL],MIC [17] [µg/mL],MIC [18] [µg/mL],MIC [19] [µg/mL],MIC [20] [µg/mL],also measured
CCC1OC(=O)C(C)C(=O)C(C)C(OC2OC(C)CC(N(C)C)C2O)C(C)(OCC=Cc2ccc3c(c2)OCCO3)CC(C)C(=O)C(C)C2NC(=O)OC12C (centres unmarked) [Example 192],> 100,0.02,100,> 100,0.2,0.2,0.01,3.1,0.1,> 100,> 100,0.1,0.1,0.1,0.2,0.1,0.01,0.01,50,0.01,MIC (Haemophilis influenzae DILL AMP R (code WW)): 4 µg/mL; MIC [10]: 0.1 µg/mL; MIC (Streptococcus Pneumonia 5649 (code ZZA)): 0.25 µg/mL; MIC (Streptococcus Pneumonia 5979 (code ZZ)): > 128 µg/mL; MIC (Streptococcus Pneumonia ATCC6303 (code XX)): 0.03 µg/mL; MIC (Streptococcus Pneumonia GYR 1171 (code YY)): 0.03 µg/mL; MIC [21]: 0.1 µg/mL
"CCC1OC(=O)C(C)C(=O)C(C)C(OC2OC(C)CC(N(C)C)C2O)C(C)(OCC=Cc2cccc([N+](=O)[O-])c2)CC(C)C(=O)C(C)C2NC(=O)OC12C (centres unmarked) [Example 193, R is —CH2CH═CH-(3-nitrophenyl)]",> 100,0.02,> 100,100,0.2,0.1,0.01,0.39,0.05,> 100,> 100,0.05,0.1,0.1,0.1,0.1,0.01,0.01,25,≤ 0.005,MIC [10]: 0.1 µg/mL; MIC [21]: 0.05 µg/mL
"CCC1OC(=O)C(C)C(=O)C(C)C(OC2OC(C)CC(N(C)C)C2O)C(C)(OCC=Cc2ccc3ncccc3c2)CC(C)C(=O)C(C)C2NC(=O)OC12C (centres unmarked) [Example 194, R is —CH2CH═CH-(6-quinolyl)]",> 100,0.02,100,50,0.39,0.1,0.01,0.78,≤ 0.005,> 100,> 100,0.05,0.05,0.05,0.1,0.05,0.01,≤ 0.005,0.78,0.01,MIC [10]: 0.05 µg/mL; MIC [21]: 0.05 µg/mL
"CCC1OC(=O)C(C)C(=O)C(C)C(OC2OC(C)CC(N(C)C)C2O)C(C)(OCC=Cc2cnc3ccc([N+](=O)[O-])cc3c2)CC(C)C(=O)C(C)C2NC(=O)OC12C (centres unmarked) [Example 195, R is —CH2CH═CH-(6-nitroquinolyl)]",> 100,0.05,50,50,0.2,0.1,0.01,0.39,0.05,> 100,> 100,0.05,0.05,0.05,0.05,0.05,0.05,0.01,1.56,0.02,MIC [21]: 0.1 µg/mL
"CCC1OC(=O)C(C)C(=O)C(C)C(OC2OC(C)CC(N(C)C)C2O)C(C)(OCC=Cc2cccc3ncccc23)CC(C)C(=O)C(C)C2NC(=O)OC12C (centres unmarked) [Example 196, R is —CH2CH═CH-(5-quinolyl)]",> 100,0.05,> 100,> 100,0.39,0.1,0.01,0.2,0.1,> 100,> 100,0.1,0.1,0.1,0.1,0.2,≤ 0.005,≤ 0.005,> 100,≤ 0.005,MIC [21]: 0.2 µg/mL
